Structures can show the parent of a compound that is named as a salt.

Sequence of human CDK9/CyclinT kinase complex (P50750 whole entry): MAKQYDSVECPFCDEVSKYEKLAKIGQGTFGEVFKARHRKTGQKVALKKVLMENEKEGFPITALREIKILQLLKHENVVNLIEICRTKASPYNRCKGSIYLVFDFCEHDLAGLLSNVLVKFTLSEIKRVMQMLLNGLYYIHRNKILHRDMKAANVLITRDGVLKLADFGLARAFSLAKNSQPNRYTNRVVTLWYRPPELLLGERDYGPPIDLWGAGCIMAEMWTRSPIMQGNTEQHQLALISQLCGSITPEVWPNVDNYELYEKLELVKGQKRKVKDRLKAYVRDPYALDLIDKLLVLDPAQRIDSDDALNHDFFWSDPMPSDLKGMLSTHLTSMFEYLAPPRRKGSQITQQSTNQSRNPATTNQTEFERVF
Sequence of human CDK9/CyclinT kinase complex (O60563 whole entry partner): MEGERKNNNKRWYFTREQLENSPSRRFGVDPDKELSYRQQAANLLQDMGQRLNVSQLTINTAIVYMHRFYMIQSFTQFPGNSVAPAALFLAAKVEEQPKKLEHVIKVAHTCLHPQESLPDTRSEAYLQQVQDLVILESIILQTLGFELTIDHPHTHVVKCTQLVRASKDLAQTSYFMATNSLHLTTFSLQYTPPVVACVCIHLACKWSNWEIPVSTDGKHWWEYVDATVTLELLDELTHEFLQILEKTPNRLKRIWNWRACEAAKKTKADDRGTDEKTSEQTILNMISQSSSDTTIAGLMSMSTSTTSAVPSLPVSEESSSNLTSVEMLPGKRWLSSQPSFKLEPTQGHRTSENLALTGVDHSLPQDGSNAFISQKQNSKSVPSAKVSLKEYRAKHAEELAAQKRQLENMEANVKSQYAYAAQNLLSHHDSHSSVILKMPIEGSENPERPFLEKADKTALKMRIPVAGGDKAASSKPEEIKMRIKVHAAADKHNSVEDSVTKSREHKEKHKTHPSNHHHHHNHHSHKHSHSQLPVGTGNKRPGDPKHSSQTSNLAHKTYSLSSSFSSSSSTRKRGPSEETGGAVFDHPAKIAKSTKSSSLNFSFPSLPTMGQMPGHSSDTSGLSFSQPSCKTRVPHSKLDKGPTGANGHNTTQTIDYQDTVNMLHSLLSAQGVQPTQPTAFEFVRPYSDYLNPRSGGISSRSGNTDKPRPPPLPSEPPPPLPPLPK

One assay addresses human CDK9/CyclinT kinase complex (Homo sapiens (Human), UniProt P50750). As to the kind of experiment: In Vitro CDK9/CyclinT Assay (IMAP fluorescent polarization). The class given is biochemical.
Conditions: not given
How it is done: In Vitro CDK9/CyclinT Assay
The activity of the compounds described in the present invention can be determined by measuring the phosphorylation of a fluorescently-labeled peptide by human CDK9/CyclinT kinase complex by fluorescent polarization using a commercially available IMAP Screening Express Assay Kit (Molecular devices).
Test compounds were diluted in 100% DMSO to 5 mM stock concentration, then further dilutions were made in H2O or 100% DMSO to desirable concentrations. Each reaction consisted of 5 nM enzyme: CDK9/CyclinT (Proqinase cat#0371-0345-1), 400 nM TAMRA-Rbtide (synthetic 15-mer peptide derived from human retinoblastoma tumor suppressor protein labeled with TAMRA dye, Genecust Europe), 12 μM ATP (=Kmapp, Sigma-Aldrich) and kinase buffer: 20 mM MOPS pH 7 (Sigma-Aldrich), 1 mM DTT (Sigma-Aldrich), 10 mM MgCl2 (Sigma-Aldrich), 0.01% Tween 20 (Sigma-Aldrich).
For each reaction, 4 or 6 μl containing TAMRA-Rbtide, ATP and kianse buffer were combined with 2 μl diluted compound in H2O or 0.028 μl compound in 100% DMSO. The kinase reaction was started by the addition of 2 μl diluted enzyme. The reaction was allowed to run for 1 hour at room temperature. The reaction was stopped by adding 15 μl IMAP beads (1:400 beads in progressive (100% buffer A) 1× buffer).
Regarding `COc1ccc(Nc2cc(-c3ccccc3OC)ncn2)cc1C(=O)NCCCN1CCN(C)CC1` [Example 47, 2-Methoxy-5-[6-(2-methoxy-phenyl)-pyrimidin-4-ylamino]-N-[3-(4-methyl-piperazin-1-yl)-propyl]-benzamide], the 50% inhibitory concentration (IC50) is less than 1 µM.

The compound `COc1ccc(Nc2cc(-c3ccccc3OC)ncn2)cc1NC(C)=O` [Example 50, N-{2-Methoxy-5-[6-(2-methoxy-phenyl)-pyrimidin-4-ylamino]-phenyl}-acetamide] gave an IC50 of less than 1 µM.

The compound `COc1ccc(-c2cc(Nc3ccc(OC)c([N+](=O)[O-])c3)ncn2)cc1` [Example 65, (4-Methoxy-3-nitro-phenyl)-[6-(4-methoxy-phenyl)-pyrimidin-4-yl]-amine] came in with an IC50 of more than 10 µM.

The compound `COc1ccc(Nc2cc(-c3ccccc3OC)ncn2)cc1OC(C)=O` [Example 93, Acetic acid 2-methoxy-5-[6-(2-methoxy-phenyl)-pyrimidin-4-ylamino]-phenyl ester] had a half-inhibitory concentration (IC50) of less than 1 µM.

In turn, `COc1ccccc1-c1cc(Nc2ccc(Oc3ccccc3)c([N+](=O)[O-])c2)ncn1` [Example 96, [6-(2-Methoxy-phenyl)-pyrimidin-4-yl]-(3-nitro-4-phenoxy-phenyl)-amine] yielded a half-maximal inhibitory concentration (IC50) of more than 10 µM.

For the compound `COC(=O)N(C)c1cc(Nc2cc(-c3ccccc3OC)ncn2)ccc1OC` [Example 98, {2-Methoxy-5-[6-(2-methoxy-phenyl)-pyrimidin-4-ylamino]-phenyl}-methyl-carbamic acid methyl ester hydrochloride], the half-inhibitory concentration (IC50) was less than 1 µM.

On to `COc1cc(F)ccc1-c1cc(Nc2ccc(F)c([N+](=O)[O-])c2)ncn1` [Example 102, [6-(4-Fluoro-2-methoxy-phenyl)-pyrimidin-4-yl]-(4-fluoro-3-nitro-phenyl)-amine], for which the IC50 was less than 10 µM.

In the case of `COc1ccccc1-c1cc(Nc2ccc(N(C)C)c(O)c2)ncn1` [Example 108, 2-Dimethylamino-5-[6-(2-methoxy-phenyl)-pyrimidin-4-ylamino]-phenol], the concentration for half-maximal inhibition (IC50) was less than 1 µM.

Staying with this assay, now noted: Table 1.
Consider `COc1ccc(Nc2cc(-c3ccccc3OC)ncn2)cc1C(=O)NCCO` [Example 48, N-(2-Hydroxy-ethyl)-2-methoxy-5-[6-(2-methoxy-phenyl)-pyrimidin-4-ylamino]-benzamide], for which the IC50 is less than 1 µM.

Compound `COC(=O)Nc1cc(Nc2cc(-c3ccccc3OC)ncn2)ccc1OC` [Example 51, {2-Methoxy-5-[6-(2-methoxy-phenyl)-pyrimidin-4-ylamino]-phenyl}-carbamic acid methyl ester] displayed an IC50 of less than 1 µM.

In turn, `CNC(=O)Nc1cc(Nc2cc(-c3ccccc3OC)ncn2)ccc1OC` [Example 52, 1-{2-Methoxy-5-[6-(2-methoxy-phenyl)-pyrimidin-4-ylamino]-phenyl}-3-methyl-urea] came in with a half-maximal inhibitory concentration (IC50) of less than 1 µM.

The compound `COc1ccc(Nc2cc(-c3ccccc3OC)ncn2)cc1NC(=O)C(C)(C)C` [Example 53, N-{2-Methoxy-5-[6-(2-methoxy-phenyl)-pyrimidin-4-ylamino]-phenyl}-2,2-dimethyl-propionamide] showed a concentration for half-maximal inhibition (IC50) of less than 1 µM.

`COc1ccc(Nc2cc(-c3ccccc3OC)ncn2)cc1Nc1nc2ccccc2[nH]1` [Example 54, N^3-(1H-Benzoimidazol-2-yl)-4-methoxy-N^1-[6-(2-methoxy-phenyl)-pyrimidin-4-yl]-benzene-1,3-diamine] had an IC50 of less than 10 µM.

As for `COc1ccc(Nc2cc(-c3ccccc3OC)ncn2)cc1NC=O` [Example 55, N-{2-Methoxy-5-[6-(2-methoxy-phenyl)-pyrimidin-4-ylamino]-phenyl}-formamide], the 50% inhibitory concentration (IC50) is less than 0.1 µM.

The compound `COc1ccc(Nc2cc(-c3ccccc3OC)ncn2)cc1NC(N)=O` [Example 56, {2-Methoxy-5-[6-(2-methoxy-phenyl)-pyrimidin-4-ylamino]-phenyl}-urea] returned a 50% inhibitory concentration (IC50) of less than 1 µM.

For `COc1ccccc1-c1cc(Nc2ccc([N+](=O)[O-])c(F)c2)ncn1` [Example 57, (3-Fluoro-4-nitro-phenyl)-[6-(2-methoxy-phenyl)-pyrimidin-4-yl]-amine], the IC50 is less than 10 µM.

With `COc1ccccc1-c1cc(Nc2ccc([N+](=O)[O-])c(OC)c2)ncn1` [Example 58, (3-Methoxy-4-nitro-phenyl)-[6-(2-methoxy-phenyl)-pyrimidin-4-yl]-amine], the IC50 is less than 10 µM.

Compound `COc1cc(Nc2cc(-c3ccccc3OC)ncn2)ccc1NS(C)(=O)=O` [Example 60, N-{2-Methoxy-4-[6-(2-methoxy-phenyl)-pyrimidin-4-ylamino]-phenyl}-methanesulfonamide] had a half-inhibitory concentration (IC50) of less than 1 µM.

Compound `CCOc1ccccc1-c1cc(Nc2ccc(OC)c([N+](=O)[O-])c2)ncn1` [Example 61, [6-(2-Ethoxy-phenyl)-pyrimidin-4-yl]-(4-methoxy-3-nitro-phenyl)-amine] yielded a half-inhibitory concentration (IC50) of less than 1 µM.

Compound `COc1cc(F)ccc1-c1cc(Nc2ccc(OC)c([N+](=O)[O-])c2)ncn1` [Example 63, [6-(4-Fluoro-2-methoxy-phenyl)-pyrimidin-4-yl]-(4-methoxy-3-nitro-phenyl)-amine] returned a half-maximal inhibitory concentration (IC50) of less than 1 µM.

Consider `CCOc1cc(F)ccc1-c1cc(Nc2ccc(OC)c([N+](=O)[O-])c2)ncn1` [Example 72, [6-(2-Ethoxy-4-fluoro-phenyl)-pyrimidin-4-yl]-(4-methoxy-3-nitro-phenyl)-amine], for which the 50% inhibitory concentration (IC50) is less than 1 µM.

On to `COc1ccc(F)cc1-c1cc(Nc2ccc(OC)c([N+](=O)[O-])c2)ncn1` [Example 74, [6-(5-Fluoro-2-methoxy-phenyl)-pyrimidin-4-yl]-(4-methoxy-3-nitro-phenyl)-amine], for which the IC50 is less than 10 µM.

Compound `COc1ccc(Nc2cc(-c3ccccc3Oc3ccccc3)ncn2)cc1[N+](=O)[O-]` [Example 76, (4-Methoxy-3-nitro-phenyl)-[6-(2-phenoxy-phenyl)-pyrimidin-4-yl]-amine] returned a half-inhibitory concentration (IC50) of more than 10 µM.

`COc1ccc(Nc2cc(-c3ccccc3OC(C)C)ncn2)cc1[N+](=O)[O-]` [Example 78, [6-(2-Isopropoxy-phenyl)-pyrimidin-4-yl]-(4-methoxy-3-nitro-phenyl)-amine] had an IC50 of less than 10 µM.

The compound `COc1ccc(Nc2cc(-c3cccc(F)c3OC)ncn2)cc1[N+](=O)[O-]` [Example 80, [6-(3-Fluoro-2-methoxy-phenyl)-pyrimidin-4-yl]-(4-methoxy-3-nitro-phenyl)-amine] displayed an IC50 of more than 10 µM.

As for `COc1cc(F)c(F)cc1-c1cc(Nc2ccc(OC)c([N+](=O)[O-])c2)ncn1` [Example 82, [6-(4,5-Difluoro-2-methoxy-phenyl)-pyrimidin-4-yl]-(4-methoxy-3-nitro-phenyl)-amine], the 50% inhibitory concentration (IC50) was more than 10 µM.

In the case of `COc1ccc(Nc2cc(-c3cc(F)c(F)cc3OC)ncn2)cc1NC=O` [Example 84, N-{5-[6-(4,5-Difluoro-2-methoxy-phenyl)-pyrimidin-4-ylamino]-2-methoxy-phenyl}-formamide], the IC50 is less than 1 µM.

With `COc1ccc(Nc2cc(-c3ccc(F)cc3OC(C)C)ncn2)cc1[N+](=O)[O-]` [Example 85, [6-(4-Fluoro-2-isopropoxy-phenyl)-pyrimidin-4-yl]-(4-methoxy-3-nitro-phenyl)-amine], the IC50 is less than 1 µM.

In the case of `COc1ccccc1-c1cc(Nc2cc(F)c(OC)c([N+](=O)[O-])c2)ncn1` [Example 87, (3-Fluoro-4-methoxy-5-nitro-phenyl)-[6-(2-methoxy-phenyl)-pyrimidin-4-yl]-amine], the IC50 was less than 10 µM.

As for `COc1ccc(F)cc1-c1cc(Nc2cc(N)c(OC)c(F)c2)ncn1` [Example 91, 5-Fluoro-N^1-[6-(5-fluoro-2-methoxy-phenyl)-pyrimidin-4-yl]-4-methoxy-benzene-1,3-diamine], the IC50 was less than 1 µM.

Turning to `COc1ccc(Nc2cc(-c3ccccc3OC)ncn2)cc1OC(=O)N(C)C` [Example 94, Dimethyl-carbamic acid 2-methoxy-5-[6-(2-methoxy-phenyl)-pyrimidin-4-ylamino]-phenyl ester], the IC50 was less than 1 µM.

Compound `COC(=O)Oc1cc(Nc2cc(-c3ccccc3OC)ncn2)ccc1OC` [Example 95, Carbonic acid 2-methoxy-5-[6-(2-methoxy-phenyl)-pyrimidin-4-ylamino]-phenyl ester methyl ester] gave an IC50 of less than 1 µM.

Compound `COc1ccccc1-c1cc(Nc2ccc(Oc3ccccc3)c(N)c2)ncn1` [Example 97, N^1-[6-(2-Methoxy-phenyl)-pyrimidin-4-yl]-4-phenoxy-benzene-1,3-diamine] registered an IC50 of less than 10 µM.

Compound `CNc1cc(Nc2cc(-c3ccccc3OC)ncn2)ccc1OC` [Example 99, 4-Methoxy-N^1-[6-(2-methoxy-phenyl)-pyrimidin-4-yl]-N^3-methyl-benzene-1,3-diamine] gave an IC50 of less than 1 µM.

In the case of `CCOc1ccc(Nc2cc(-c3ccccc3OC)ncn2)cc1[N+](=O)[O-]` [Example 100, (4-Ethoxy-3-nitro-phenyl)-[6-(2-methoxy-phenyl)-pyrimidin-4-yl]-amine], the IC50 was less than 10 µM.

The compound `CCOc1ccc(Nc2cc(-c3ccc(F)cc3OC)ncn2)cc1[N+](=O)[O-]` [Example 103, (4-Ethoxy-3-nitro-phenyl)-[6-(4-fluoro-2-methoxy-phenyl)-pyrimidin-4-yl]-amine] returned an IC50 of less than 1 µM.

On to `COc1cc(F)ccc1-c1cc(Nc2ccc(F)c(N)c2)ncn1` [Example 104, 4-Fluoro-N^1-[6-(4-fluoro-2-methoxy-phenyl)-pyrimidin-4-yl]-benzene-1,3-diamine], for which the IC50 is less than 1 µM.

The values are drawn from patent US9617225B2 (VIROSTATICS SRL, priority 2012, dated 2017).
